# Assay results taken from US20230357253A1, “AGONISTS OF STIMULATOR OF INTERFERON GENES STING” (THE SCRIPPS RESEARCH INSTITUTE, priority 2020, published 2023).
# Target: human STING protein (Homo sapiens (Human), UniProt Q86WV6)
# Test: WT STING binding assay (HTRF, competition with labeled 2′3′cGAMP)
# Settings: recombinant 6×His-tagged human STING, three hours at room temperature
# Experimental: WT STING binding assay (Cisbio, Catalog #64BDSTGPEH). […] Upon proximity of the two dyes, the excitation of the donor by the flash lamp on the PHERAstar FSX plate reader triggers a Fluorescence Resonance Energy Transfer (FRET) towards the acceptor, which in turn fluoresces at 665 nm. To assess the ability of the synthetic small molecule STING ligands to bind to human STING, a competitive assay format was applied. A 10-point titration of each of the synthetic ligands in 5 uL were transferred into a 384 well plate, followed by 20 uL of assay buffer containing the 6×His-tagged human STING protein and labeled 2′3′cGAMP ligand and incubated for three hours at room temperature. The raw values obtained from the PHERAstar were used to calculate the reported IC50 values (the signal is inversely proportional to the binding of the synthetic ligand) through curve fitting in Genedata. The percent inhibition was calculated based upon the maximal amount of binding by synthetic compound versus the maximum binding of unlabeled 2′3′ cGAMP which was used as a control in each assay.
# Sequence of human STING protein (Q86WV6 whole entry): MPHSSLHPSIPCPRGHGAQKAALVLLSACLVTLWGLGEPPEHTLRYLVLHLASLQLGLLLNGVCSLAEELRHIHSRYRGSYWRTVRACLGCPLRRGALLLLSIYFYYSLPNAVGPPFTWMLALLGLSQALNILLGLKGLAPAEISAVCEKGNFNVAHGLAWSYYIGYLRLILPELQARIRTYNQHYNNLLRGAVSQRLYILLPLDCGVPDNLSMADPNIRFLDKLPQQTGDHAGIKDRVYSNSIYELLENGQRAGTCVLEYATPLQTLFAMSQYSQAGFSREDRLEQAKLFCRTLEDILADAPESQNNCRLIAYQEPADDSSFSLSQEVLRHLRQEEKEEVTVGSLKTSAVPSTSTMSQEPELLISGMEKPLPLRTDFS
row,IC50 [nM],SMILES
1,100 to 1000,O=C(Nc1cc(OCCCOc2cc(NC(=O)c3ccc(-n4ccnc4)nn3)c(C(=O)O)cc2F)c(F)cc1C(=O)O)c1ccc(N2CCOCC2)nn1 [Compound 211]
2,100 to 1000,O=C(Nc1cc(F)c(CCOc2cc(C(=O)O)c(NC(=O)c3ccc(-n4ccnc4)nn3)cc2F)cc1C(=O)O)c1ccc(-n2ccnc2)nn1 [Compound 178]
3,100 to 1000,COc1cc(NC(=O)c2ccc(-n3ccnc3)nn2)c(C(=O)O)c(F)c1OCCc1cc(NC(=O)c2ccc(-n3ccnc3)nn2)c(C(=O)O)cc1F [Compound 189]
4,100 to 1000,O=C(Nc1cc(OCCCCOc2cc(NC(=O)c3ccc(-n4ccnc4)nn3)c(C(=O)O)cc2Cl)ccc1C(=O)O)c1ccc(-n2ccnc2)nn1 [Compound 81]
5,100 to 1000,O=C(Nc1cc(CCCc2cc(NC(=O)c3ccc4cnnn4n3)c(C(=O)O)cc2F)c(F)cc1C(=O)O)c1ccc(O)nn1 [Compound 120]
6,100 to 1000,O=C(Nc1cc(OCCCCOc2cnc(C(=O)O)c(NC(=O)c3ccc(-n4ccnc4)nn3)c2)c(F)cc1C(=O)O)c1ccc(-n2ccnc2)nn1 [Compound 69]
7,100 to 1000,Cn1nccc1-c1ccc(C(=O)Nc2cc(CCCc3cc(NC(=O)c4ccc(-c5ccnn5C)nn4)c(C(=O)O)cc3F)c(F)cc2C(=O)O)nn1 [Compound 201]
8,100 to 1000,O=C(Nc1cc(CCOc2cc(NC(=O)c3ccc(-n4ccnc4)nn3)c(C(=O)O)cc2F)c(F)cc1CO)c1ccc(-n2ccnc2)nn1 [Compound 198]

# Test system: THP-1 Lucia ISG cells
# Test: ISRE-luciferase assay (ISG-LUC activation)
# Format: cell-based
# Settings: Homo sapiens, THP1-Lucia ISG, 24 hours, luciferase reporter
# Experimental: ISRE-luciferase assay. THP-1 Lucia ISG cells were resuspended in low-serum growth media (2% FBS) at a density of 5×10^5 cells/ml and treated with test article or vehicle (DMSO). 50 μL of cells were seeded into each well of a 384-well white greiner plates and incubated for 24 hours. To evaluate expression of the luciferase reporter, 30 μl of Quanti-luc (Invivogen) detection reagent was added to each well and luminescence was read using an Envision plate reader (Perkin Elmer) set with an integration time of 0.1 seconds. For each cell type, luminescence signals for test article samples were normalized to vehicle-treated samples and reported as relative light units (RLU).
row,EC50 [nM],SMILES
1,500 to 5000,O=C(Nc1cc(COc2cc(NC(=O)c3ccc(-n4ccnc4)nn3)c(C(=O)O)cc2F)c(F)cc1C(=O)O)c1ccc(-n2ccnc2)nn1 [Compound 175]
2,< 50,COC(=O)c1cc(F)c(CCCc2cc(NC(=O)c3ccc(-n4ccnc4)nn3)c(C(=O)OC)cc2OC)cc1NC(=O)c1ccc(-n2ccnc2)nn1 [Compound 54]
3,< 50,O=C(Nc1cc(OCCc2c(F)cc(NC(=O)c3ccc(-n4ccnc4)nn3)c(C(=O)O)c2F)c(F)cc1C(=O)O)c1ccc(-n2ccnc2)nn1 [Compound 177]
4,50 to 500,"CC(CCOc1cc(NC(=O)c2ccc(-n3ccnc3)nn2)c(C(=O)O)cc1F)Oc1cc(NC(=O)c2ccc(-n3ccnc3)nn2)c(C(=O)O)cc1F (centres unmarked) [Compound 5, 4,4′-(butane-1,3-diylbis(oxy))bis(2-(6-(1H-imidazol-1-yl)pyridazine-3-carboxamido)-5-fluorobenzoic acid)]"
5,< 50,O=c1oc(-c2ccc(-n3ccnc3)nn2)nc2cc(OCCCCOc3cc4nc(-c5ccc(-n6ccnc6)nn5)oc(=O)c4cc3F)c(F)cc12 [Compound 40]
6,< 50,O=C(Nc1cc(CSCc2cc(NC(=O)c3ccc(-n4ccnc4)nn3)c(C(=O)O)cc2F)c(F)cc1C(=O)O)c1ccc(-n2ccnc2)nn1 [Compound 132]
7,> 5000,O=C(Nc1cc(OCc2cc(C(=O)O)c(NC(=O)c3ccc(-n4ccnc4)nn3)cc2F)c(F)cc1C(=O)O)c1ccc(-n2ccnc2)nn1 [Compound 190]
8,> 5000,O=C(Nc1cc(OCCCCOc2ccc(C(=O)O)c(NC(=O)c3ccc(-n4ccnc4)nn3)c2)ccc1C(=O)O)c1ccc(O)nn1 [Compound 35]
9,< 50,O=C(Nc1cc(CCOc2cc(NC(=O)c3ccc(-n4ccnc4)nn3)c(C(=O)O)cc2F)c(F)cc1C(=O)O)c1ccc(-c2cn[nH]c2)nn1 [Compound 205]
10,< 50,COc1cc2c(=O)oc(-c3ccc(-n4ccnc4)nn3)nc2cc1OCCCCOc1cc2nc(-c3ccc(-n4ccnc4)nn3)oc(=O)c2cc1OC [Compound 41]
11,50 to 500,"COc1cc(C(=O)O)c(NC(=O)c2ccc(-n3ccnc3)nn2)cc1OCCc1cc(C(=O)O)c(NC(=O)c2ccc3nnnn3n2)cc1Cl [Compound 6, 2-(6-(1H-imidazol-1-yl)pyridazine-3-carboxamido)-4-(5-carboxy-2-chloro-4-(tetrazolo[1,5-b]pyridazine-6-carboxamido)phenethoxy)-5-methoxybenzoic acid]"
12,50 to 500,O=C(Nc1cc(CCCc2cc(NC(=O)c3ccc4nnnn4n3)c(C(=O)O)cc2F)c(F)cc1C(=O)O)c1ccc(-n2ccnc2)nn1 [Compound 67]
13,50 to 500,COc1cc(C(=O)O)c(NC(=O)c2ccc(-n3ccnc3)nn2)cc1OCCc1cc(C(=O)O)c(NC(=O)c2ccc(-n3ccnc3)nn2)cc1Cl [Compound 156]
14,50 to 500,"O=C(Nc1cc(CCOc2cc(NC(=O)c3ccc(-c4cn[nH]c4)nn3)c(C(=O)O)cc2F)c(F)cc1C(=O)O)c1ccc(-c2cn[nH]c2)nn1 [Compound 4, 2-(6-(1H-pyrazol-4-yl)pyridazine-3-carboxamido)-4-(5-(6-(1H-pyrazol-4-yl)pyridazine-3-carboxamido)-4-carboxy-2-fluorophenethoxy)-5-fluorobenzoic acid]"
15,> 5000,COC(=O)c1cc(F)c(OCCc2c(OC)cc(NC(=O)c3ccc(-n4ccnc4)nn3)c(C(=O)OC)c2F)cc1NC(=O)c1ccc(-n2ccnc2)nn1 [Compound 150]
16,500 to 5000,COC(=O)Cc1cc(F)c(CCOc2cc(NC(=O)c3ccc(-n4ccnc4)nn3)c(C(=O)OC)cc2F)cc1NC(=O)c1ccc(-n2ccnc2)nn1 [Compound 131]
17,50 to 500,O=C(Nc1cc(OCCc2cc(C(=O)O)c(NC(=O)c3ccc(-n4ccnc4)nn3)cc2F)c(F)cc1C(=O)O)c1ccc(-n2ccnc2)nn1 [Compound 144]
18,50 to 500,N#Cc1cc(C(=O)O)c(NC(=O)c2ccc(-n3ccnc3)nn2)cc1CCOc1cc(NC(=O)c2ccc(-n3ccnc3)nn2)c(C(=O)O)cc1F [Compound 162]
19,> 5000,COC(=O)c1cc(F)c(OCCc2cc(C(=O)OC)c(NC(=O)c3ccc(-n4ccnc4)nn3)cc2C#N)cc1NC(=O)c1ccc(-n2ccnc2)nn1 [Compound 188]
20,50 to 500,O=C(Nc1c(C(=O)O)cc(F)c(OCCCCOc2c(F)cc(C(=O)O)c(NC(=O)c3ccc(-n4ccnc4)nn3)c2F)c1F)c1ccc(-n2ccnc2)nn1 [Compound 38]
21,50 to 500,COc1cc(C(=O)O)c(NC(=O)c2ccc(-n3ccnc3)nn2)cc1CCCc1cc(NC(=O)c2ccc(-n3ccnc3)nn2)c(C(=O)O)cc1F [Compound 59]
22,500 to 5000,O=C(Nc1cc(CCCOc2cc(NC(=O)c3ccc(-n4ccnc4)nn3)c(C(=O)O)cc2F)c(F)cc1C(=O)O)c1ccc(-n2ccnc2)nn1 [Compound 125]
23,50 to 500,"O=C(Nc1cc(CCCc2cc(NC(=O)c3ccc(-n4ccnc4)nn3)c(C(=O)O)cc2F)c(F)cc1C(=O)O)c1ccc(-n2ccnc2)nn1 [Compound 3, 4,4′-(propane-1,3-diyl)bis(2-(6-(1H-imidazol-1-yl)pyridazine-3-carbox-amido)-5-fluorobenzoic acid)]"
24,500 to 5000,COC(=O)c1cc(F)c(OCCc2cc(NC(=O)c3ccc(-n4ccnc4)nn3)c(C(O)C(=O)OC)cc2F)cc1NC(=O)c1ccc(-n2ccnc2)nn1 (centres unmarked) [Compound 152]
25,50 to 500,CC(Cc1cc(NC(=O)c2ccc(-n3ccnc3)nn2)c(C(=O)O)cc1F)Cc1cc(NC(=O)c2ccc(-n3ccnc3)nn2)c(C(=O)O)cc1F [Compound 194]
26,50 to 500,"O=C(Nc1cc(OCCCOc2cc(C(=O)O)c(NC(=O)c3ccc(-n4ccnc4)nn3)cc2F)c(F)cc1C(=O)O)c1ccc(-n2ccnc2)nn1 [Compound 10, 2-(6-(1H-imidazol-1-yl)pyridazine-3-carboxamido)-5-(3-(5-(6-(1H-imidazol-1-yl)pyridazine-3-carboxamido)-4-carboxy-2-fluorophenoxy)propoxy)-4-fluoro-benzoic acid]"
27,< 50,COC(=O)c1cc(F)c(CCCc2cc(NC(=O)c3ccc(-n4ccnc4)nn3)c(C(=O)OC)cc2F)cc1NC(=O)c1ccc(-n2ccnc2)nn1 [Compound 51]
